Assay results taken from patent publication US20070092551A1, “Therapeutic agent” (TAKARA BIO INC., priority 2003, published 2007).
Like-named read-outs stand apart in the source and are kept apart here.

How the values were obtained:
3T3-L1 cells = experiment: Induction of adipocyte differentiation (amount of triglyceride biosynthesis); assay type: cell-based; details: Mus musculus
Method in brief: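 Differentiation scored as X=(S−N)/(P−N), ranked +++, ++, +, +/−, where S, N and P are triglyceride with compound, DMSO and insulin; triglyceride was extracted with hexane:isopropanol (3:2) and assayed twice. Compound was added after 7 days' growth, first with 0.25 μM dexamethasone (45 h), then for 7 days.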

[1] = target: T1, fusion protein of an yeast GAL4 DNA-binding domain and a human PPARγ ligand-binding site (Homo sapiens, UniProt P37231); experiment: PPARγ activation reporter assay in CV-1 cells; assay type: cell-based; details: test compound 10 μM, pFA-CMV (PPARγ), 24 hours
T1 construct: expressed in transfected cells; host or cells: CV-1 cells
T1 sequence (P37231 204-505): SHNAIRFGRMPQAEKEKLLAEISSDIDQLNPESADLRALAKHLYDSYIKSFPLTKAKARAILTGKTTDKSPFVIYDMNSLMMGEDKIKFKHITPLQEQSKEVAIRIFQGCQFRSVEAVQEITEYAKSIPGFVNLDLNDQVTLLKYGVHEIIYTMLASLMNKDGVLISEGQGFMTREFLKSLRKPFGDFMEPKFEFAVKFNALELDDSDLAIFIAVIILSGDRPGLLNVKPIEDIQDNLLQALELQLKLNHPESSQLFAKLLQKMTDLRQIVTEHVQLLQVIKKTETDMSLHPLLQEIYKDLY
Protocol: The activation ability for PPARγ was determined by a reporter assay using a fusion protein of an yeast GAL4 DNA-binding domain and a human PPARγ ligand-binding site.
A plasmid (pGAL4/GL3-Promoter) was prepared by repeating five times insertion of a binding site (UASg) of GAL4 into a multicloning site of a pGL3-Promoter vector (Promega). In addition, a ligand-binding site (amino acid sequence 204 to 505) of the PPARγ gene was cloned from a human liver cDNA library (manufactured by TAKARA BIO INC.) by a polymerase chain reaction, and the ligand-binding site was inserted into a multicloning site of a pFA-CMV plasmid vector ([…]) to give pFA-CMV (PPARγ).
Escherichia coli JM-109 strain was transformed with each of the two kinds of the plasmids obtained by the above-mentioned procedures, and pFA-CMV and pRL-TK (Promega) according to a conventional method. Each of the Escherichia coli cells was cultured with shaking at 37° C. for 18 hours in an LB medium containing 100 μg/mL ampicillin. Thereafter, the plasmids of each were purified according to the procedure manual of QIAfilter Plasmid midi Kit (QIAGEN).
CV-1 cells were seeded in a 24-well plate so as to have a density of 4×10^4 cells per well. Thereafter, the cells were cultured in a Dulbecco's modified Eagle's medium (manufactured by Sigma, D5796) containing 10% fetal bovine serine (manufactured by Bio Whittaker) for 24 hours under the conditions of 37° C. and 5% CO2. Thereafter, in accordance with the procedure manual of LipofectAmine 2000 (Invitrogen), the gene transfer was carried out into the CV-1 cells with 200 ng of pFA-CMV (PPARγ) or pFA-CMV, 400 ng of pGAL4/GL3-promoter, and 200 ng of pRL-TK per well, and thereafter the cells were cultured for 24 hours under the conditions of 37° C. and 5% CO2. Thereafter, the medium was exchanged with a Dulbecco's modified Eagle's medium to which a test compound dissolved in dimethyl sulfoxide was previously added so as to have a final concentration of 10 μM. Thereafter, the cells were cultured for additional 24 hours. In addition, there were set a group with addition of dimethyl sulfoxide in place of a test compound as a negative control, and a group with addition of troglytazone (manufactured by Calbiochem) so as to have a final concentration of 3 μM as a positive control. The cells were washed with a phosphate buffered saline, and 5× PassiveLysisBuffer (Promega) which was previously diluted in 5-folds with distilled water was added thereto in an amount of 100 μL per well. The mixture was shaken at room temperature for 15 minutes to lyse cells. Twenty microliters of this lysed solution was applied in accordance with the procedure manual of Dual Luciferase Assay System (Promega), and a fluorescent luciferase emission intensity and a Renilla mullerei luciferase emission intensity were measured using Mithras-LB940 (BERTHOLD TECHNOLOGIES GmbH). The enhancing action for transcriptional activation of each test compound was shown as a relative value obtained by calculating a ratio of the fluorescent luciferase emission intensity to the Renilla mullerei luciferase emission intensity, wherein the value of the group with addition of the negative control is defined as 1.

[2] = 3T3-L1, read-out: Action for Induction of Differentiation
[3] = 3T3-L1, X=(S−N)/(P−N) of amount of triglyceride, P=insulin positive control, read-out: Action for Induction of Differentiation
[4] = 3T3-L1, 3 μM, X=(S−N)/(P−N) of amount of triglyceride, P=insulin positive control, read-out: Action for Induction of Differentiation
[5] = 3T3-L1, 10 μM, X=(S−N)/(P−N) of amount of triglyceride, P=insulin positive control, read-out: Action for Induction of Differentiation

| SMILES | activation at 1.3 µM (3T3-L1 cells; 3T3-L1, 1.3 μM, X=(S−N)/(P−N) of amount of triglyceride, P=insulin positive control, read-out: Action for Induction of Differentiation) [%] | activation at 4 µM (3T3-L1 cells; 3T3-L1, 4 μM, X=(S−N)/(P−N) of amount of triglyceride, P=insulin positive control, read-out: Action for Induction of Differentiation) [%] | activation at 13 µM (3T3-L1 cells; 3T3-L1, 13 μM, X=(S−N)/(P−N) of amount of triglyceride, P=insulin positive control, read-out: Action for Induction of Differentiation) [%] | enhancing action for transcriptional activation (PPARγ) [1] | activation at 3 µM (3T3-L1 cells; [2]) [%] | activation at 10 µM (3T3-L1 cells; [2]) [%] | activation at 1 µM (3T3-L1 cells; [3]) [%] | activation at 3 µM (3T3-L1 cells; [4]) [%] | activation at 10 µM (3T3-L1 cells; [5]) [%] |
| --- | --- | --- | --- | --- | --- | --- | --- | --- | --- |
| COc1ccc(C(=O)/C=C/c2ccc(O)cc2)c2c1CC(O)C(C)(C)O2 (stereo not drawn) [Xanthoangelol H] | 30 to 60 | 60 to 100 | > 100 | no enhancing action for transcriptional activation was found | – | – | – | – | – |
| COc1ccc(C(=O)/C=C/c2ccc(O)cc2)c(O)c1CC=C(C)C [4-Hydroxyderricin, 4,2′-Dihydroxy-3′-prenyl-4′-methoxychalcone] | – | – | – | no enhancing action for transcriptional activation was found | 60 to 100 | > 100 | – | – | – |
| CC(C)=CCC/C(C)=C/Cc1c(O)ccc(C(=O)/C=C/c2ccc(O)cc2)c1O [Xanthoangelol, 4,2′,4′-Trihydroxy-3′-geranylchalcone] | – | – | – | no enhancing action for transcriptional activation was found | – | – | 15 to 30 | 60 to 100 | > 100 |
| COc1ccc(C(=O)/C=C/c2ccc(O)cc2)c(O)c1C/C=C(\C)CCC=C(C)C [Xanthoangelol F, 4,2′-Dihydroxy-3′-geranyl-4′-methoxychalcone] | – | – | – | no enhancing action for transcriptional activation was found | – | – | 60 to 100 | > 100 | > 100 |
